In PubChem BioAssay AID179 (DTP/NCI, 2004):
The source made the active and inactive calls.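 The calls were made as follows: active = compounds giving half or more protection of infected cells from virus-caused growth loss, again on retest; inactive = the rest.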

Test system: CEM cells HIV-1 protection, formazan growth assay
Assay: NCI AIDS Antiviral Assay
Conditions: for IC50: measured here: growth of uninfected CEM cells
Outline: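 Human CEM cells, uninfected and HIV-1-infected, received five drug concentrations, and growth was read by soluble formazan assay. Compounds giving at least 50% protection were retested; reproducible 100% protection defined confirmed active.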

SMILES | EC50 [µM] | IC50 [µM] | outcome
O=C1NC(=O)C(=CN2C(=O)/C(=C/c3ccc(O)cc3)SC2=S)C(=O)N1 | > 200 | 41.7 | –
CCOC(=O)c1ccc(NC(=O)SCCC(=O)O)cc1 | – | – | inactive
O=C1/C(=C\c2ccccc2O)Cc2ccccc21 | > 148 | 28.2 | –
COC(=O)CCC(=O)C(CC(=O)OC)C(=O)CCC(=O)NCCc1ccccc1 (stereo not given) | > 27.5 | > 27.5 | –
O=C(NC(Nc1ccc(F)c(Cl)c1)(C(F)(F)F)C(F)(F)F)OCc1ccccc1 | > 200 | 30.9 | –
Clc1cccc(Cl)c1C1SCc2nc3ncccc3n21 (stereo not given) | 32.4 | 105 | –
CCn1ncc2c1nc(-c1ccccc1)c[n+]2[O-] | > 200 | > 200 | –
COc1cc(OC)cc(-c2cc(=O)c3c(OC)c(OC)c(OC)c(OC)c3o2)c1 | > 200 | 26.9 | –
Clc1cc(Cl)cc(C2ON=C(c3ccccc3)N2C23CC4CC(CC(C4)C2)C3)c1 (stereo not given) | > 200 | > 200 | –
C=CC[N+](CC)(CC)Cc1ccc(C[N+](CC)(CC)CC=C)cc1 | > 513 | > 513 | –
CC(C)=O.O=C([O-])C(F)(F)F.O=C([O-])C(F)(F)F.O=C([O-])C(F)(F)F.O=C([O-])C(F)(F)F.[Rh+2].[Rh+2] | > 200 | > 200 | –
CCn1c(=O)c2nc(SC)sc2n(-c2ccc(C)cc2)c1=O | – | – | inactive
CCOC(=O)C1=C(C)Nc2ccccc2S1 | – | – | inactive
COc1ccc(-c2c3c(n(C4OC(COC(C)=O)C(OC(C)=O)C(OC(C)=O)C4OC(C)=O)c(=S)c2C#N)CCC3)cc1 (stereo not given) | > 200 | 112 | –
Cn1cnnc1Sc1c([N+](=O)[O-])ncn1C | > 1050 | 9.12 | –
CC1=CC(=O)/C(=C/N2CCNC2=S)C(=O)O1 | > 200 | > 200 | –
O=C1/C(=C/c2ccc3c(c2)OCO3)Sc2scc(-c3ccc(O)c(O)c3)[n+]21 | > 200 | 1.1 | –
O=C(O)CCNc1ccc2c(c1)B(O)OC2 | > 692 | > 692 | –
CCN(CC)C(=S)SCn1nc(Cl)c2ccc([N+](=O)[O-])cc21 | > 69.2 | 40.7 | –
CC1(C)CC(=O)C2C(C1)Nc1ccccc1NC2c1cccc([N+](=O)[O-])c1 (stereo not given) | > 200 | 93.3 | –
CC(=O)OCC1OC(SC2OC(COC(C)=O)C(OC(C)=O)C(OC(C)=O)C2OC(C)=O)C(OC(C)=O)C(OC(C)=O)C1OC(C)=O (stereo not given) | 97.7 | > 200 | –
NNCCc1n[nH]c(=O)n1N | > 200 | > 200 | –
O=C(Cn1c2ccc(Br)cc2c2nc3ccccc3nc21)N1CCOCC1 | > 100 | > 100 | –

SMILES | EC50 [µM] | IC50 [µM] | outcome
ClC(Cl)=C1C(=C(Cl)Cl)C(Cl)(Cl)C1(Cl)Cl | > 52.5 | 2.82 | –
Cc1cc(S(=O)(=O)Nc2nnc3cc(C(F)(F)F)cc(C)n23)c(S)cc1Cl | 50.1 | 132 | –
O=C1C2CCN(CC2)C1CN1CCOCC1 (stereo not given) | – | – | inactive
C[N+](C)(C)CCOP(=O)([O-])OCCNC(=O)c1ccc2ccccc2c1 | > 200 | > 200 | –
COC1CC(n2cnc3c(N)ncnc32)OC1CO (stereo not given) | > 200 | > 200 | –
CCCCCN(CCCCC)CCC(=O)c1ccc2cc(Br)c3ccccc3c2c1 | > 200 | 12.6 | –
O=C(N/N=C1\C(=O)N(c2nccs2)C(=O)C(=O)C1c1nc2ccccc2s1)c1ccccc1O (stereo not given) | – | – | inactive
CN(C)CCCSCC(COc1nccc(-c2ccc(-c3ccc(-c4ccnc(OCC(CSCCCN(C)C)SCCCN(C)C)n4)s3)s2)n1)SCCCN(C)C (stereo not given) | > 4.27 | 2.69 | –
CCCC(N)S(=O)(=O)O (stereo not given) | > 200 | > 200 | –
Cc1nnc(NC(=O)c2cc(=O)c3ccccc3o2)s1 | > 91.2 | > 91.2 | –
CN(C)c1ccc(/C=C/C(=O)C(C)(C)C)cc1 | – | – | inactive
CC1=Nc2ccc(C)cc2N=C(C)C1 | > 200 | > 200 | –
CCN1C(=O)C(C)S/C1=N\NC(=O)CSc1nc2ccccc2c(=O)n1CC (stereo not given) | > 200 | 145 | –
CCCCCCCCNC(=O)SCCCC | – | – | inactive
S=c1[nH][nH]c(=S)c2[nH]cnc12 | > 141 | > 141 | –
O=C1CCCCCCCCCCC1Sc1ccccc1 (stereo not given) | > 12.3 | > 12.3 | –
CCC1(c2ccccc2)C(=O)N=C(c2ccccc2)N1CCc1ccccc1 (stereo not given) | > 200 | > 200 | –
CN(C)c1ccc(-c2nc(-c3cc4c(ccc5ccccc54)oc3=O)cs2)cc1 | > 100 | > 100 | –
O=C(Nc1ccc([N+](=O)[O-])cc1)OCC(COc1ccccc1)OC(=O)Nc1ccc([N+](=O)[O-])cc1 (stereo not given) | > 200 | 7.76 | –
O=S(CC1(O)CCCCC1)c1ccccc1 (stereo not given) | – | – | inactive
CC(=O)[C@H]1CC[C@@H]2[C@]1(C)CC=C1[C@]23C=C[C@]2(C[C@@H](O)CC[C@]12C)C(C(=O)O)C3C(=O)O (stereo not given in full) | – | – | inactive
Cc1nc2c(sc3nc4c(cc32)CCC4)c(=O)o1 | > 100 | 53.7 | –
COc1cc(-c2ccc(N=Nc3cc(S(=O)(=O)O)c4cccc(S(=O)(=O)O)c4c3N)c(OC)c2)ccc1N=Nc1cc(S(=O)(=O)O)c2cccc(S(=O)(=O)O)c2c1N | 14.1 | 89.1 | –

SMILES | EC50 [µM] | IC50 [µM] | outcome
O=C(CSc1nc(-c2ccccc2)c(-c2ccccc2)[nH]1)NNC(=S)Nc1ccccc1 | > 56.2 | 29.5 | –
Cc1ccc(C2CC(c3ccco3)=NN2c2ccccc2)o1 (stereo not given) | > 17.8 | > 17.8 | –
CN1C/C(=C\C=C\c2ccccc2)C(=O)/C(=C/C=C/c2ccccc2)C1 | > 7.24 | > 7.24 | –
CN(C)CCNc1ccc(CO)c2oc3ccc(O)cc3c(=O)c12 | > 398 | 1.15 | –
Nc1ccc(-c2cc3ccccc3[nH]2)cc1 | > 148 | 117 | –
COc1ccc(C2=NN(C(C)=O)c3nc4ccccc4nc3O2)cc1 | – | – | inactive
c1cnn(C23C4C5C6C4C2C6C53)c1 (stereo not given) | > 200 | > 200 | –
C=C[C@@]1(O)CC[C@@H](C(C)(C)C)C[C@H]1CC(=C)Br | – | – | inactive
C=CCN1CCC(OC(=O)C(O)(/C=C\CC)C2CCCC2)CC1 (stereo not given) | > 200 | > 200 | –
CSSCc1ccccc1 | > 200 | 19.1 | –
COc1ccc2c(c1)c1c(n2CCN(C)C)-c2cccc(OC)c2CC1 | > 200 | 11 | –
COc1cc2cccc(OC)c(=O)c2c(O)c1OC | – | – | inactive
CC(C)(C)COC(=O)NS(=O)(=O)Nc1ccccc1 | > 200 | > 200 | –
CCCN(CCCc1ccccc1)CCc1ccc2[nH]c(=S)[nH]c2c1 | > 200 | 35.5 | –
O=c1cc(N2CCNCC2)nc2ccccn12 | > 200 | > 200 | –
COc1ccc(/C=C2\N=C(SC)N(CN3CCOCC3)C2=O)cc1 | > 200 | 29.5 | –
CCOC(=O)/C(=C\c1ccnc2ccccc12)P(=O)(OCC)OCC | > 200 | 3.31 | –
COc1cc2c3c(c1OC)C1(C=CC(=O)C=C1)CC3N(C(C)=O)CC2 (stereo not given) | – | – | inactive
COc1ccc2c(c1)CCN=C2Cc1cc(OC)c(OC)cc1CCCl | > 200 | 53.7 | –
CCC(=O)C(CCN1CCC(n2c(=O)[nH]c3ccccc32)CC1)(c1ccccc1)c1ccccc1 | > 200 | 19.1 | –
c1cc2c(ncc3cscc32)s1 | – | – | inactive
